Positions of bridges follow the written chain, without caps; N, C: chain ends. Residues, ends and D or L forms follow the SMILES beside them. No end group written: not given here.
Legend:
[1] = tested on: normal human liver cell line 7701; assay: Toxicity on normal liver cells; assay type: cell-based; conditions: QSG-7701 cells
Method: Normal human liver cells QSG-7701 and Hepatocellular Carcinoma Cell lines 7721, Huh7, MHCC97H, MHCC97L, and HepG2 were all obtained from the Institute of Biomedical Sciences, Jinan University. All cells were cultured in DMEM medium (Gibco, Grand Island, NE, USA) supplemented with 10% fetal bovine serum (Gibco, Grand Island, NE, USA). The cell lines were incubated in a humidified atmosphere with 5% CO2 at 37 °C.
Cells in the logarithmic growth phase with good viability were seeded into 96-well plates at a density of 2500 cells per well and incubated for 24 h at 37 °C with 5% CO2. The old medium was removed, and the cells were starved with DMEM medium containing 0.5% FBS for 24 h. Peptides were diluted with 0.5% starved medium to different concentrations and added to each well with the same volume. The cells were then incubated for an additional 48 h at 37 °C. After removing the medium, 100 μL of CCK-8 working solution was added to each well, and the plate was incubated for 1 h at 37 °C with 5% CO2. Finally, the absorbance at 450 nm of each well was measured using a multifunctional microplate reader. Cell viability (%) was equal to (Asample − Ablank)/(Acontrol − Ablank) × 100%. […]
Cells in the logarithmic growth phase were seeded at a density of 1000 cells per well in 6-well plates and cultured for 24 h. […] After air-drying the plate, the colonies were photographed and counted.

[2] = tested on: MHCC97L transplant tumors; assay: MHCC97L subcutaneous xenograft model; conditions: 25 mg/kg tail vein injection, monitored every two days for 14 days, n = 4
Method: Male BALB/c-nude mice were purchased from Guangdong GemPharmatech Co., Ltd. These mice were fed with food and purified water at room temperature in the SPF laboratory. MHCC97L cells (0.1 mL of physiological saline containing 1 × 10^7 cells) were subcutaneously injected into the armpit of 5-week-old male BALB/c-nude mice. Tumor volume and weight were measured every 2 days, and tumor volume was calculated using the following formula: (short axis)^2 × (long axis)/2. When the tumor volume reached approximately 50 mm^3, these mice were weighed and randomly divided into 3 groups (n = 4): the model group, the SAIF group (25 mg/kg), and the ctSAIF group (25 mg/kg). SAIF and ctSAIF were administered via tail vein injection at a dose of 25 mg/kg. The peptide was dissolved in saline solution to 5 mg/mL, and the dosage volume of each mouse was calculated using the following formula: (25 mg/kg × body weight)/(5 mg/mL). After 14 days of treatment, the mice were sacrificed, and the tumors were collected for histopathological examination.

[3] = In vitro serum stability assay of peptides (HPLC-UV / LC-MS); assay type: in vitro ADME; conditions: human; serum from healthy individuals mixed with peptide 9:1, peptide 1 mg/mL, 37 °C, 0-1440 min, 10% TFA precipitation, HPLC-UV (C18) peak area
Method: The serum obtained from healthy individuals was centrifuged at a low speed and mixed with peptides at a ratio of 9:1 to achieve a peptide concentration of 1 mg/mL. The peptide–serum mixture was then incubated at 37 °C for different periods. After reaching the pre-determined time point (0, 10, 20, 30, 60, 120, 240, 480, 960, or 1440 min), pure trifluoroacetic acid was added to each sample to reach a final concentration of 10%. The mixture was then vortexed and centrifuged for 10 min at 13,000 rpm, and the supernatant (10 μL) was collected and stored in HPLC vials for analysis.
HPLC-UV analysis was performed using a C18 analytical column (Thermo Acclaim300 C18 LC ColuMns, 4.6 mm diameter, 150 mm length, Catalog #: 060266) and a Waters ACQUITY Arc Bio instrument, following the method shown in Table 1. The target peak was determined based on the retention time of pure peptides, and on this basis, detect peptides were degraded at different times and their peak area recorded to generate a degradation curve. The degradation rate of peptides was equal to (Areasample − Areablank)/(Areacontrol − Areablank) × 100%. The area of the blank was equal to the peak area detected after mixing peptides with ultrapure water at the same initial concentration. The signal-to-noise ratio of all collected data was greater than 10. […]

[4] = serum obtained from healthy individuals; conditions: 37 °C, up to 1440 min

Compound: CSCC[C@@H]1NC(=O)[C@H](C)NC(=O)[C@H](CC(=O)O)NC(=O)[C@H](C)NC(=O)[C@H](CO)NC(=O)[C@H](CCSC)NC(=O)[C@H](CCCNC(=N)N)NC(=O)[C@H](C(C)C)NC(=O)[C@H](CCCNC(=N)N)NC(=O)[C@H](CCCCN)NC(=O)[C@H](CC(C)C)NC(=O)[C@@H]2CCCN2C(=O)[C@@H]2CCCN2C(=O)[C@H](CCCNC(=N)N)NC(=O)[C@H](CCCCN)NC(=O)[C@H](Cc2ccccc2)NC(=O)[C@H](CCCCN)NC(=O)CNC(=O)[C@H](CCCCN)NC(=O)[C@@H](N)CSSC[C@@H](C(=O)O)NC(=O)[C@H](CC(C)C)NC1=O [ctSAIF] (H-CKGKFKRPPLKRVRMSADAMLC-OH; disulfide 1-22)
- toxicity on normal human liver cell line 7701 [1]: no significant toxicity
- weight of nude mice during treatment [2]: no significant changes
- half-life at 1 mg/mL [3]: ~6 h

Compound: KEIDDLNLKVFDLKGKFKRPPLKRVRMSADAML
- fragment found [4]: tSAIF (KGKFKRPPLKRVRMSADAML), 2 h

Compound: KEIDDLNLKVFDLKGKFKRPPLKRVRMSADAML [SAIF]
- toxicity on normal human liver cell line 7701 [1]: no significant toxicity

— article PMC10295666 (Bioengineering, 2023)
